Laboratory results from patent US20050148514A1, “Method and composition for treatment of angiogenesis” (priority 2003, published 2005).
Where no end group is shown, it is not given here.

How the values were obtained:
[1] = test system: total MMP-9, i.e., human active and pro-MMP-9; assay: Total MMP-9 ELISA (Quantikine) on plasma of prostate cancer patients treated with the drug; format: in vivo; settings: for MMP-9 level in plasma, D27C1: day 27 of treatment cycle 1; for Maximum Reduction of MMP-9: versus baseline D1C1; for MMP-9 level in plasma, D27C2: day 27 of treatment cycle 2
Protocol: The reconstituted drug used in the present example is made from a solution containing a 20 mg/mL of PCK3145 derivative (SEQ ID NO.:5 derivative); SEQ ID NO.: 7, in a phosphate buffer at pH 7.4 for dilution in sterile saline (0.9% NaCl, BP) prior to intravenous administration. The solutions is filled into Type 1 glass vials, stoppered with Teflon®-faced butyl stoppers, and sealed with flip-off seals.
The drug was administered to patients characterized as having metastatic adenocarcinoma of the prostate, stage 1V prostatic cancer and as having a metastatic hormone resistant prostatic cancer.
Biological samples were drawn during different time points. Plasma samples were placed on dry ice and stored frozen (approximately −70° C.) and subsequently analyzed for total MM P-9 levels.
MMP-9 assay methodology. An Elisa assay measuring total MMP-9, i.e., human active and pro-MMP-9, (Quantikine®, Cat. No.: DMP900, R&D Systems Inc.) was performed on plasma-heparin samples. Plasma samples have been collected from individuals at day 1 (before treatment) and at day 27 of each treatment cycle.
The Quantikine® MMP-9 immunoassay is a solid phase ELISA designed to measure total MMP-9 (92 kDa pro- and 82 kDa active forms) in serum, plasma, saliva, urine and cell culture supernatants. It is calibrated with CHO-cells expressed recombinant human pro-MMP-9 and the antibodies were raised against the recombinant factor. Both antibodies also recognize recombinant human active MMP-9.
The assay employs the quantitative sandwich enzyme immunoassay technique. A monoclonal antibody specific for MMP-9 has been pre-coated onto a microplate. Standards and samples are added into the wells, and MMP-9 is thus bound by the immobilized antibody. After washing away unbound substances, an enzyme-linked polyclonal antibody specific for MMP-9 is added to the wells. Following a wash to remove unbound antibody-enzyme reagent, a substrate solution is added to the wells and color develops in proportion to the amount of total MMP-9 (pro and/or active) bound in the initial step. The color development is stopped and the intensity of the color is measured.
Results of MMP-9 levels in patient's plasma, before and after one or more treatment cycle with PCK3145 derivative; SEQ ID NO.: 7 are illustrated in Table 2.
Normal values of healthy volunteers were not determined in this study but lizasa et al., has determined that the normal range of plasma MMP-9 concentrations is about 11.4 to 59.4 ng/ml. Based on theses values, patients were sub-divided into two categories; those having normal value of MMP-9 (below 100 μg/L) and those having an elevated level of MMP-9 (higher than 100 μg/L) at baseline (see column identified as D1C1 in Table2).

ERK [2] = assay: VEGF-induced ERK phosphorylation in BAEC; format: cell-based; settings: data not shown
Protocol: VEGF is a strong activator of ERKs (Extracellular-signal-Regulated protein Kinases) 1 and 2 via VEGF receptor 2. In order to test the ability of the PCK3145 derivative in potentially antagonizing VEGF-mediated ERK phosphorylation, serum-starved quiescent endothelial cells (HUVEC) were incubated with vehicle (phosphate-buffered saline (PBS) pH 7.4) or PCK3145 derivative (300 μg/ml) for 24 h and then stimulated with VEGF, bFGF (basic Fibroblast Growth Factor) or S1P (sphingosine-1-phosphate). Cells were washed with PBS containing NaF/Na3VO4 and incubated in the same medium buffer for 1 h at 4° C. The cells were scraped from the culture dishes and the resulting lysates clarified by centrifugation. Western blotting and immunodetection using anti-phosphoERK and anti-ERK antibodies was then performed.
The total amount of ERK in each sample of cells was unaffected by the PCK3145 derivative (FIG. 4A). Although, PCK3145 derivative also seemed to stimulate ERK phosphorylation induced by S1P in HUVEC (FIG. 4A), that result was found not statistically significant.

ERK [3] = assay: Intrinsic effect on ERK phosphorylation (western blot); format: cell-based
Protocol: In order to investigate the potential intracellular pathways triggered by the PCK3145 derivative, a gene-reporter assay using the SEAP (Secreted Alkaline Phosphatase) Mercury Profiling Kit (CLONTECH) was performed in glioma cells (U-87). This assay enables the monitoring of transcription factors that are triggered by a particular experimental condition by assaying the alkaline phosphatase activity in the extracellular media. […] The induction of the MAPK pathway by the PCK3145 derivative is further confirmed by the rapid and transient induction of ERK phosphorylation between 5-10 minutes (FIG. 8B) and is shown to be dose-dependent (FIG. 8C). Finally, the effects of the PCK3145 derivative were also compared to those of a scrambled peptide.

For “EWQTDNCETCTCYET (cysteine pairing not given here)”, which “change in MMP-9 levels compared to baseline” value (shortened to “change in MMP-9 levels”) ([1]; elevated MMP-9 category (patients A, B, C and D), each patient after one cycle of treatment) is on record?
Its value is “significant decrease”.

What about the “change in MMP-9 levels” value ([1]; normal value MMP-9 category (patients E, F, G, H and I), after one cycle of treatment) of the same sequence?
The value was “no significant decrease”.

And the “decrease in MMP-9 levels compared to baseline levels” value ([1]; patient A, after one cycle of treatment)?
Its value is “up to 89%”.

And the “MMP-9 level in plasma, D27C1” value ([1]; patient A, elevated MMP-9 (baseline D1C1 424))?
The value was 47.3 µg/L.

And the “Maximum Reduction of MMP-9” value ([1]; patient A)?
The value was 89%.

What about the “decrease in MMP-9” value ([1]; patient B, after cycle 1) of the same sequence?
Its value is 41%.

And the “MMP-9 level in plasma, D27C1” value ([1]; patient B, elevated MMP-9 (baseline D1C1 156.5))?
The value was 91.6 µg/L.

And the “reduction of baseline level of MMP-9” value ([1]; patient B, treatment cycle 2)?
The value was 64%.

And the “reduction of baseline level of MMP-9” value ([1]; patient B, treatment cycle 3)?
Its value is 65%.

What about the “reduction of baseline level of MMP-9” value ([1]; patient B, treatment cycle 4) of the same sequence?
The value was 75%.

And the “Maximum Reduction of MMP-9” value ([1]; patient B)?
Its value is 75%.

What about the “decrease in MMP-9” value ([1]; patient C, at cycle 1) of the same sequence?
Its value is 90%.

What about the “reduction in MMP-9 levels” value ([1]; patient C, cycle 2) of the same sequence?
The value was 76%.

What about the “MMP-9 level in plasma, D27C1” value ([1]; patient C, elevated MMP-9 (baseline D1C1 155)) of the same sequence?
The value was 14.9 µg/L.

And the “Maximum Reduction of MMP-9” value ([1]; patient C)?
The value was 90%.

And the “decrease in MMP-9” value ([1]; patient D, at cycle 1)?
The value was 34%.

And the “MMP-9 level in plasma, D27C1” value ([1]; patient D, elevated MMP-9 (baseline D1C1 130.2))?
Its value is 85.2 µg/L.

And the “Maximum Reduction of MMP-9” value ([1]; patient D)?
The value was 34%.

What about the “MMP-9 level in plasma, D27C2” value ([1]; patient E (baseline D1C1 57.5)) of the same sequence?
The value was 60.1 µg/L.

And the “change in MMP-9 levels” value ([1]; patient E, after 3 cycles of treatment)?
Its value is “still no MMP-9 decrease”.

What about the “MMP-9 level in plasma, D27C1” value ([1]; patient E, normal MMP-9 (baseline D1C1 57.5)) of the same sequence?
The value was 58 µg/L.

What about the “MMP-9 level in plasma, D27C1” value ([1]; patient F, normal MMP-9 (baseline D1C1 53.2)) of the same sequence?
The value was 73.1 µg/L.

What about the “MMP-9 level in plasma, D27C2” value ([1]; patient G (baseline D1C1 33.9)) of the same sequence?
The value was 189.6 µg/L.

What about the “MMP-9 level in plasma, D27C1” value ([1]; patient G, normal MMP-9 (baseline D1C1 33.9)) of the same sequence?
The value was 45.4 µg/L.

What about the “MMP-9 level in plasma, D27C2” value ([1]; patient H (baseline D1C1 57.0)) of the same sequence?
The value was 65 µg/L.

And the “MMP-9 level in plasma, D27C1” value ([1]; patient H, normal MMP-9 (baseline D1C1 57.0))?
The value was 44.0 µg/L.

And the “MMP-9 level in plasma, D27C1” value ([1]; patient I, normal MMP-9 (baseline D1C1 22.1))?
The value was 18.8 µg/L.

And the “change in MMP-9 levels” value ([1]; patients E and G, after 2 cycles of treatment)?
The value was “no decrease in MMP-9 levels was observed”.

And the “ERK phosphorylation induced by VEGF” value (ERK [2])?
The value was “inhibitory effect was confirmed”.

And the “dose dependence of induction of ERK phosphorylation” value (ERK [3]; dose-response)?
Its value is “dose-dependent”.

What about the “time of rapid and transient induction of ERK phosphorylation” value (ERK [3]; time-course, no growth factor) of the same sequence?
Its value is 5 to 10 min.
